Source: PubChem BioAssay AID1259408 (Genetic Toxicology Data Bank (GENE-TOX), 2018)
Activity calls are given as the source filed them. How the calls were made is not given here.

System: GENE-TOX genotoxicity assays, various organisms and cells
Assay: GENE-TOX mutagenicity studies
Conditions: for call: Assay Type: In vivo carcinogenicity studies
[1] = Species/Cell Type: Salmonella typhimurium (one or more of the five standard strains: TA98, TA100, TA1535, TA1537, and TA1538), Assay Type: Histidine reverse gene mutation, Ames assay, Assay Code: SAL+, Evaluation Type: Evaluation A (Pre-1980)
[2] = Species/Cell Type: Drosophila melanogaster, Assay Type: Sex-linked recessive lethal gene mutation, Assay Code: SRL+, Evaluation Type: Evaluation A (Pre-1980)
[3] = Species/Cell Type: Bacillus subtilis (H17 vs M45T), Assay Type: Rec-assay, spot test, DNA effects (bacterial DNA repair), Assay Code: REX+, Evaluation Type: Evaluation A (Pre-1980)
[4] = Species/Cell Type: Neurospora crassa, Assay Type: Aneuploidy, chromosome aberrations, Assay Code: NEN-, Evaluation Type: Evaluation A (Pre-1980)
[5] = Species/Cell Type: Salmonella typhimurium (one or more of the five standard strains: TA98, TA100, TA1535, TA1537, and TA1538), Assay Type: Histidine reverse gene mutation, Ames assay, Assay Code: SALT, Evaluation Type: Evaluation A (Pre-1980)
[6] = Species/Cell Type: Drosophila melanogaster, Assay Type: Sex-linked recessive lethal gene mutation, Assay Code: SRLT, Evaluation Type: Evaluation A (Pre-1980)
[7] = Species/Cell Type: Nonhuman, Assay Code: CCGT, Evaluation Type: Evaluation A (Pre-1980)
[8] = Species/Cell Type: Chinese hamster lung (V79) cells, Assay Type: Forward gene mutation at the HPRT or ouabain locus, Assay Code: V79-*, Activation: With metabolic activation, Evaluation Type: Evaluation A (Pre-1980)
[9] = Species/Cell Type: Nonhuman, Assay Code: CCG+L, Evaluation Type: Evaluation A (Pre-1980)
[10] = Species/Cell Type: Saccharomyces cerevisiae, Assay Type: Mitotic recombination or gene conversion, Assay Code: YEH-, Evaluation Type: Evaluation A (Pre-1980)
[11] = Species/Cell Type: Salmonella typhimurium (one or more of the five standard strains: TA98, TA100, TA1535, TA1537, and TA1538), Assay Type: Histidine reverse gene mutation, Ames assay, Assay Code: SAL+*, Activation: With metabolic activation, Evaluation Type: Evaluation A (Pre-1980)
[12] = Species/Cell Type: Nonhuman, Assay Code: CCG+, Evaluation Type: Evaluation A (Pre-1980)
[13] = Species/Cell Type: Chinese hamster lung (V79) cells, Assay Type: Forward gene mutation at the HPRT or ouabain locus, Assay Code: V79-, Evaluation Type: Evaluation A (Pre-1980)
[14] = Species/Cell Type: Mammalian polychromatic erythrocytes, Assay Type: Micronucleus test, chromosome aberrations, Assay Code: MNTT, Evaluation Type: Evaluation B (Post-1980)
[15] = Species/Cell Type: Escherichia coli WP2, Assay Type: Tryptophan reverse gene mutation, Assay Code: WP2+, Evaluation Type: Evaluation A (Pre-1980)

COC(=O)[C@H](N)Cc1cnc[nH]1
mutagenic call (Species/Cell Type: Drosophila melanogaster, Assay Type: Sex-linked recessive lethal gene mutation, Assay Code: SRL-, Evaluation Type: Evaluation A (Pre-1980)): inactive; negative

Cc1c2ccccc2c(C2CO2)c2ccccc12 (configuration not stated)
mutagenic call [1]: active; positive

CCN(CC)CCn1nc2c3c(c(C)ccc31)Sc1ccccc1-2
mutagenic call [2]: active; positive | mutagenic call (Species/Cell Type: Mouse lymphoma (L5178Y) cells, Assay Type: Forward gene mutation at the thymidine kinase (TK) locus, chromosome aberrations, Assay Code: L51+, Evaluation Type: Evaluation A (Pre-1980)): active; positive | mutagenic call (Species/Cell Type: Neurospora crassa, Assay Type: Forward gene mutation, Assay Code: NEF+, Evaluation Type: Evaluation A (Pre-1980)): active; positive

O=C1OC2(c3cc(Br)c(O)c(Br)c3Oc3c2cc(Br)c(O)c3Br)c2c(Cl)ccc(Cl)c21
mutagenic call (Species/Cell Type: Bacillus subtilis (H17 vs M45), Assay Type: Rec-assay, spot test, DNA effects (bacterial DNA repair), Assay Code: REW-, Evaluation Type: Evaluation A (Pre-1980)): inactive; negative | mutagenic call [3]: active; positive

Cc1cc(C)[o+]c(C)c1
mutagenic call (Species/Cell Type: Allium cepa, Assay Type: Chromosome aberrations, Assay Code: ALC+, Evaluation Type: Evaluation A (Pre-1980)): active; positive

CCOC(=O)N1CC1
mutagenic call (Species/Cell Type: Schizosaccharomyces pombe, Assay Type: Reverse gene mutation, Assay Code: YEZ+, Evaluation Type: Evaluation A (Pre-1980)): active; positive

NC(Cc1cccc(F)c1)C(=O)O (configuration not stated)
mutagenic call [4]: inactive; negative

O=S(=O)(Cl)c1cccc2cccnc12
mutagenic call [5]: no conclusion

CC(=O)NN
mutagenic call (Species/Cell Type: Mammalian polychromatic erythrocytes, Assay Type: Micronucleus test, chromosome aberrations, Assay Code: MNT+U, Dose Response: Unconfirmed positive response, Evaluation Type: Evaluation B (Post-1980)): active; positive

FC1(F)C(F)(F)C(F)(F)C1(F)F
mutagenic call [6]: no conclusion

c1ccc2c3c4c(ccc5cccc(c54)[C@H]4O[C@@H]34)cc2c1
mutagenic call (Species/Cell Type: Chinese hamster lung (V79) cells, Assay Type: Forward gene mutation at the HPRT or ouabain locus, Assay Code: V79+, Evaluation Type: Evaluation A (Pre-1980)): active; positive | call [7]: no conclusion | mutagenic call [1]: active; positive

Cc1c2ccccc2c(C)c2c1cc(F)c1ccccc12
mutagenic call [8]: inactive; negative

COc1ccccc1N1CCN(c2ccc([N+](=O)[O-])c3no[n+]([O-])c23)CC1
mutagenic call [1]: active; positive

Nc1ccc(N=Nc2ccccc2)cc1
mutagenic call (Species/Cell Type: Escherichia coli polA (W3110 vs P3478), Assay Type: Rec-assay, DNA effects (bacterial DNA repair), Assay Code: RE2-, Evaluation Type: Evaluation A (Pre-1980)): inactive; negative | mutagenic call (Species/Cell Type: Escherichia coli polA (W3119 vs P3478), Assay Type: Rec-assay, DNA effects (bacterial DNA repair), Assay Code: RE1T, Evaluation Type: Evaluation A (Pre-1980)): no conclusion | mutagenic call (Species/Cell Type: Fischer rat embryo (RLV/1706) cells, Assay Type: Cell transformation, viral enhanced, Assay Code: CTR-, Evaluation Type: Evaluation A (Pre-1980)): inactive; negative | mutagenic call (Species/Cell Type: Mouse embryo (AKR/ME) cells, Assay Type: Cell transformation, Assay Code: CTK-, Evaluation Type: Evaluation A (Pre-1980)): inactive; negative | call [9]: active; positive | mutagenic call (Species/Cell Type: Nonhuman, Assay Type: Sister-chromatid exchange (SCE) in vitro, Assay Code: SC2+, Evaluation Type: Evaluation B (Post-1980)): active; positive | mutagenic call (Species/Cell Type: Nonhuman, Assay Type: Sister-chromatid exchange (SCE) in vivo, Assay Code: SC3+, Evaluation Type: Evaluation B (Post-1980)): active; positive | mutagenic call (Species/Cell Type: Rat primary hepatocytes, Assay Type: Unscheduled DNA synthesis (UDS) in vitro, DNA effects, Assay Code: UDP+, Evaluation Type: Evaluation A (Pre-1980)): active; positive | mutagenic call [10]: inactive; negative | mutagenic call [11]: active; positive | mutagenic call (Species/Cell Type: Salmonella typhimurium, Assay Type: Forward and reverse gene mutation, host-mediated assay, Assay Code: HMA+, Evaluation Type: Evaluation A (Pre-1980)): active; positive | mutagenic call (Species/Cell Type: Syrian hamster embryo (SHE) cells, Assay Type: Cell transformation, clonal assay, Assay Code: CTC+, Evaluation Type: Evaluation A (Pre-1980)): active; positive

CCOC(=O)COc1ccc(Cl)cc1CCl (tested in a mixture with another compound)
mutagenic call (Species/Cell Type: Saccharomyces cerevisiae, Assay Type: Reverse gene mutation, Assay Code: YERT, Evaluation Type: Evaluation A (Pre-1980)): no conclusion

C=C(Cl)CSC(=S)N(CC)CC
call [12]: active; positive | mutagenic call [11]: active; positive

O=C1OC2(c3ccc(O)cc3Oc3cc(O)ccc32)c2ccccc21
mutagenic call (Species/Cell Type: Bacillus subtilis (H17 vs M45), Assay Type: Rec-assay, spot test, DNA effects (bacterial DNA repair), Assay Code: REWT, Evaluation Type: Evaluation A (Pre-1980)): no conclusion

OC(O)C(F)(F)F
mutagenic call [5]: no conclusion

[Se]
mutagenic call (Species/Cell Type: Human lymphocytes, Assay Type: Sister-chromatid exchange (SCE) in vitro, Assay Code: SCL+D, Dose Response: With dose response, Evaluation Type: Evaluation B (Post-1980)): active; positive | mutagenic call (Species/Cell Type: Human, Assay Type: Sister-chromatid exchange (SCE) in vitro, Assay Code: SC1+D, Dose Response: With dose response, Evaluation Type: Evaluation B (Post-1980)): active; positive

CN(N=O)C(C)(C)C
mutagenic call [13]: inactive; negative

O=C1c2ccccc2C(=O)c2c1cc(O)c(CO)c2O
mutagenic call [1]: active; positive

c1ncncn1
mutagenic call [6]: no conclusion

O[C@H]1[C@@H](O)Cc2c(cc3ccc4cccc5ccc2c3c45)[C@@H]1O
mutagenic call [13]: inactive; negative

O=NN(CCCl)C(=O)NCCO
mutagenic call [2]: active; positive | mutagenic call (Species/Cell Type: Saccharomyces cerevisiae, Assay Type: Mitotic recombination or gene conversion, Assay Code: YEC+, Evaluation Type: Evaluation A (Pre-1980)): active; positive

CN1CCC=C(C(=O)O)C1
mutagenic call [14]: no conclusion

CC1=C(/C=C/C(C)=C/C=C/C(C)=C/C=C/C=C(C)/C=C/C=C(C)/C=C/C2=C(C)CCCC2(C)C)C(C)(C)CCC1
mutagenic call (Species/Cell Type: Bacillus subtilis (H17 vs M45T), Assay Type: Rec-assay, spot test, DNA effects (bacterial DNA repair), Assay Code: REXT, Evaluation Type: Evaluation A (Pre-1980)): no conclusion | mutagenic call [14]: no conclusion

N#CC(Cl)Cl
mutagenic call (Species/Cell Type: Saccharomyces cerevisiae, Assay Type: Mitotic recombination or gene conversion, Assay Code: YEH+, Evaluation Type: Evaluation A (Pre-1980)): active; positive | mutagenic call [1]: active; positive

Cc1cc(N)c(N)cc1N
mutagenic call [5]: no conclusion

O=C1NC(c2ccc([N+](=O)[O-])s2)Nc2ccccc21 (configuration not stated)
mutagenic call [1]: active; positive

O=C1CN(/N=C/C=C/c2ccc([N+](=O)[O-])o2)C(=O)N1
mutagenic call [15]: active; positive | mutagenic call (Species/Cell Type: Escherichia coli WP2 UVRA, Assay Type: Tryptophan reverse gene mutation, Assay Code: WPU-, Evaluation Type: Evaluation A (Pre-1980)): inactive; negative

COc1ccc(-c2csc(N)n2)cc1
mutagenic call (Species/Cell Type: Salmonella typhimurium, Serratia marcesens, Assay Type: Forward and reverse gene mutation, host-mediated assay, Assay Code: HM2T, Evaluation Type: Evaluation A (Pre-1980)): no conclusion

CCC(C)c1ccccc1OC(=O)N(C)N=O (configuration not stated)
mutagenic call [3]: active; positive | mutagenic call [15]: active; positive

N#Cc1c(Cl)c(Cl)c(Cl)c(C#N)c1Cl
mutagenic call (Species/Cell Type: Hordeum vulgare (barley), Assay Type: Chromosome aberrations, Assay Code: HOC-, Evaluation Type: Evaluation A (Pre-1980)): inactive; negative | call [9]: active; positive

O[C@H]1C=Cc2cc3c(ccc4ccccc43)cc2[C@@H]1O
mutagenic call [8]: inactive; negative | call [7]: no conclusion | mutagenic call (Species/Cell Type: Nonhuman, Assay Type: Sister-chromatid exchange (SCE) in vitro, Assay Code: SC2+D, Dose Response: With dose response, Evaluation Type: Evaluation B (Post-1980)): active; positive | mutagenic call [5]: no conclusion

CC(C)O
mutagenic call [4]: inactive; negative | mutagenic call (Species/Cell Type: Syrian hamster embryo (SA7/SHE) cells, Assay Type: Cell transformation, viral enhanced, Assay Code: CT7-, Evaluation Type: Evaluation A (Pre-1980)): inactive; negative

CC(C)C[C@H](NC(=O)N[C@H](C(=O)N[C@@H](CCC(N)=O)C(=O)N[C@@H](C)C=O)[C@@H]1CCNC(N)=N1)C(=O)O
mutagenic call (Species/Cell Type: Human, Assay Type: Sister-chromatid exchange (SCE) in vitro, Assay Code: SC1T, Evaluation Type: Evaluation B (Post-1980)): no conclusion | mutagenic call (Species/Cell Type: Nonhuman, Assay Type: Sister-chromatid exchange (SCE) in vitro, Assay Code: SC2T, Evaluation Type: Evaluation B (Post-1980)): no conclusion

CNC(C)C1CCC(N)C(OC2C(N)CC(N)C(OC3OCC(C)(O)C(NC)C3O)C2O)O1 (configuration not stated)
mutagenic call [10]: inactive; negative

ClCOCCl
call [12]: active; positive
